Common to all, as to assay type: cell-based
For experiment [1], the system named is NCI-H460. Briefly: Viability assay with NCI-H460 (CellTiter-Glo cytotoxicity assay, 72 h). The conditions noted are these: NCI-H460 cell line, 72 h after compounds addition. The method, then: (§1) NCI-H460 (Epithelial lung tissue; carcinoma; large cell lung cancer) were cultured in RPMI Medium 1640 (Invitrogen-22400105) supplemented with 10% fetal bovine serum (FBS; Invitrogen-10099141). All the cell lines were maintained in a humidified incubator at 37° C. with 5% CO2. Cell culture media and supplements were purchased from Invitrogen, and tissue culture flasks were purchased from Corning, 96-well plates were purchased from Greiner. CellTiter-Glo Luminescent Cell Viability Assay kits were purchased from Promega (Promega-G7573), cells counter Vi-Cell was purchased from Beckman, D300e digital dispenser was purchased from Tecan, detection instrument Envision was purchased from PerkinElmer.
(§2) Paclitaxel was purchased from SELLECK, test compounds, such as any one of the compounds disclosed herein, attained solubility in DMSO and when diluted into culture media. DMSO, solutions containing the test compounds, and culture media were warmed to 37° C. or room temperature for the solution preparation and dilutions.
(§3) NCI-H460 Cell line were seeded in 96-well plates (1200/well) and allowed to adhere to overnight (100 uL/well), for drug treatments with 2 fold dilution, 9 dose points, triplicates or vehicle control, compound stock solutions were prepared in DMSO and use D300e digital dispenser to add compounds to the wells to give the indicated final drug concentrations. Final DMSO concentration was 0.5%. Cellular ATP concentrations were assessed by using the CellTiter-Glo Cell Viability Assay as per the manufacturer's instructions 72 h after compounds addition. Additional cells lines were assayed with any one of the compounds disclosed herein according to the procedures described for the viability assay with NCI-H460.
On the technique in general: Cellular ATP, detected with luciferase, serves as a proxy for viable cell number.

The test system of experiment [2] is HT-29. Briefly: Viability assay with HT-29. Conditions: HT-29, viability assay per Example 57. The method, then: as §1, §2, §3
A viability assay with HT-29 (Colorectal adenocarcinoma) was performed with compounds listed in Table 18 according to the procedures described in Example 57.

Experiment [3] relates to MIA PaCa-2. Briefly: Viability assay with MIA PaCa-2. Conditions: MIA PaCa-2, viability assay per Example 57. The protocol: as §1, §2, §3
A viability assay with MIA PaCa-2 (Epithelial pancreas tissue; carcinoma) was performed with compounds listed in Table 15, according to the procedures described in Example 57.

Counter-ions that a name gives are not always drawn. Where only a bound is given, the exact number is not on record here.

Regarding `NCCCn1cc(-c2ccc(OC(F)(F)F)cc2)c2cc(CN3CCN(Cc4ccc(Cl)c(Cl)c4)CC3)ccc21` [C138; HCl], the EC50 in experiment [1], in experiment [2] and in experiment [3] was no more than 5 µM each time.
Take `NCCCn1cc(-c2ccc(OC(F)(F)F)cc2)c2cc(CN3CCN(CCc4ccccc4Cl)CC3)ccc21` [C140; HCl]: the EC50 in experiment [1], in experiment [2] and in experiment [3] was no more than 5 µM throughout.
In the case of `FC(F)(F)Oc1ccc(-c2cn(CCCCN(c3ccccn3)c3ccccn3)c3ccc(CN4CCN(Cc5ccccc5Cl)CC4)cc23)cc1` [C205; Formic Acid], the EC50 in experiment [1], in experiment [2] and in experiment [3] was 5 to 10 µM throughout.
For the compound `COc1ccc(CN2CCN(Cc3ccc4c(c3)c(-c3ccc(OC(F)(F)F)cc3CN)cn4CCCN)CC2)cc1` [C266; HCl], the EC50 in experiment [1], in experiment [2] and in experiment [3] was no more than 5 µM throughout.
Regarding `NCCCn1cc(-c2ccc(OC(F)(F)F)cc2CN)c2cc(CN3CCCC(N)C3)ccc21` (stereo not drawn) [C259; HCl], the EC50 in experiment [1], in experiment [2] and in experiment [3] was 5 to 10 µM each time.
For the compound `NCCc1cccc(-n2cc(-c3ccc(OC(F)(F)F)cc3)c3cc(CN4CCN(Cc5ccccc5Cl)CC4)ccc32)c1` [C235; Formic Acid], the EC50 in experiment [1], in experiment [2] and in experiment [3] was no more than 5 µM throughout.
`NCCCn1cc(-c2ccc(OC(F)(F)F)cc2CN)c2cc(CN3CCC4(CCCN(Cc5ccccc5Cl)C4)CC3)ccc21` [C253; HCl]: the EC50 in experiment [1], in experiment [2] and in experiment [3] was no more than 5 µM in each case.
Take `COc1cccc(Cl)c1-c1cn(CCCN)c2ccc(CN3CCN(Cc4c(Cl)cccc4Cl)CC3)cc12` [C154; HCl]: the EC50 in experiment [1], in experiment [2] and in experiment [3] was no more than 5 µM throughout.
In the case of `NCCCn1cc(-c2ccc(OC(F)(F)F)cc2)c2c(CN3CCN(Cc4ccc(OC(F)(F)F)cc4)CC3)cccc21` [C186; HCl], the EC50 in experiment [1], in experiment [2] and in experiment [3] was 5 to 10 µM in each case.
In the case of `NCc1cc(OC(F)(F)F)ccc1-c1cn(C2CCNCC2)c2ccc(CN3CCN(Cc4ccccc4Cl)CC3)cc12` [C254; HCl], the EC50 in experiment [1], in experiment [2] and in experiment [3] was no more than 5 µM in each case.
Turning to `CN(CCN(C)C(=O)c1ccc2c(c1)c(-c1ccc(OC(F)(F)F)cc1)cn2CCCN)Cc1ccccc1Cl` [C193; HCl], the EC50 in experiment [1], in experiment [2] and in experiment [3] was no more than 5 µM throughout.
`NCc1ccc(-n2cc(-c3ccc(OC(F)(F)F)cc3)c3cc(CN4CCN(Cc5ccccc5Cl)CC4)ccc32)cn1` [C218; Formic Acid]: the EC50 in experiment [1], in experiment [2] and in experiment [3] was no more than 5 µM throughout.
Regarding `NC1CCC(n2cc(-c3ccc(OC(F)(F)F)cc3)c3cc(CN4CCN(Cc5ccccc5Cl)CC4)ccc32)CC1` (stereo not drawn) [C212; HCl], the EC50 in experiment [1], in experiment [2] and in experiment [3] was no more than 5 µM throughout.
On to `NCCCn1cc(-c2ccccc2C(N)=O)c2cc(CN3CCN(Cc4ccccc4Cl)CC3)ccc21` [C185; HCl], for which the EC50 in experiment [1], in experiment [2] and in experiment [3] was 5 to 10 µM each time.
As for `NCCCn1cc(-c2ccc(OC(F)(F)F)cc2)c2cc(CN3CCC(Nc4cccc(Cl)c4)CC3)ccc21` [C214; Formic Acid], the EC50 in experiment [1], in experiment [2] and in experiment [3] was no more than 5 µM in each case.
In the case of `FC(F)(F)Oc1ccc(-c2cn(CC3CCNCC3)c3ccc(CN4CCN(Cc5ccccc5Cl)CC4)cc23)cc1` [C171; HCl], the concentration giving a half-maximal response (EC50) in experiment [1], in experiment [2] and in experiment [3] was no more than 5 µM in each case.
As to `Cc1ncc(CN2CCN(Cc3ccc4c(c3)c(-c3ccc(OC(F)(F)F)cc3)cn4CCCN)CC2)n1C` [C194; HCl], the EC50 in experiment [1], in experiment [2] and in experiment [3] was 5 to 10 µM each time.
Turning to `COc1cccc(NC2CCN(Cc3ccc4c(c3)c(-c3ccc(OC(F)(F)F)cc3CN)cn4CCCN)CC2)c1` [C277; HCl], the EC50 in experiment [1], in experiment [2] and in experiment [3] was no more than 5 µM throughout.
On to `COc1cccc(CC2CCN(Cc3ccc4c(c3)c(-c3ccc(OC(F)(F)F)cc3CN)cn4CCCN)CC2)c1` [C262; HCl], for which the EC50 in experiment [1], in experiment [2] and in experiment [3] was no more than 5 µM each time.
As to `NCCCn1cc(-c2ccc(OC(F)(F)F)cc2)c2c(CN3CCN(Cc4ccccc4Cl)CC3)cccc21` [C183; HCl], the EC50 in experiment [1], in experiment [2] and in experiment [3] was no more than 5 µM each time.
As for `CC1CCN(Cc2ccc3c(c2)c(-c2ccc(OC(F)(F)F)cc2CN)cn3CCCN)CC1` [C257; HCl], the EC50 in experiment [1], in experiment [2] and in experiment [3] was no more than 5 µM each time.
For `NCCCn1cc(-c2ccc(OC(F)(F)F)cc2)c2cc(CN3CCC(O)CC3)ccc21` [C295; HCl], the EC50 in experiment [1], in experiment [2] and in experiment [3] was no more than 5 µM each time.
For `NCCCn1cc(-c2ccc(OC(F)(F)F)cc2CN)c2cc(CN3CCC(Cc4ccccc4Cl)CC3)ccc21` [C221; HCl], the EC50 in experiment [1], in experiment [2] and in experiment [3] was no more than 5 µM throughout.
In the case of `NCCCn1cc(-c2ccc(OC(F)(F)F)cc2)c2cc(Nc3ccc(Nc4ccccc4Cl)nc3)ccc21` [C246; Formic Acid], the results for the half-maximal effective concentration (EC50) in experiment [1], in experiment [2] and in experiment [3] were 5 to 10 µM, 10 to 30 µM and 5 to 10 µM, respectively.
Take `COc1cccc(CCCCN(C)Cc2ccc3c(c2)c(-c2ccc(OC(F)(F)F)cc2CN)cn3CCCN)c1` [C298; HCl]: the EC50 in experiment [1] was no more than 5 µM; in experiment [2], no more than 5 µM; in experiment [3], 5 to 10 µM.
As to `NCCCn1cc(-c2ccc(OC(F)(F)F)cc2)c2cc(CN3CCC(Nc4ccc(Cl)cc4)CC3)ccc21` [C210; HCl], the EC50 in experiment [1], in experiment [2] and in experiment [3] was no more than 5 µM in each case.
Regarding `CCC1CCN(Cc2ccc3c(c2)c(-c2ccc(C)cc2CN)cn3CCCN)CC1` [C256; HCl], the 50% effective concentration (EC50) in experiment [1], in experiment [2] and in experiment [3] was 5 to 10 µM in each case.
As for `COc1ccc(-c2cn(CCCN)c3ccc(CN4CCN(Cc5ccccc5Cl)CC4)cc23)c(CNS(C)(=O)=O)c1` [C287; HCl], the EC50 in experiment [1], in experiment [2] and in experiment [3] was no more than 5 µM each time.
As to `Cn1nccc1CN1CCN(Cc2ccc3c(c2)c(-c2ccc(OC(F)(F)F)cc2)cn3CCCN)CC1` [C128; HCl], the half-maximal effective concentration (EC50) in experiment [1], in experiment [2] and in experiment [3] was no more than 5 µM in each case.
In the case of `Cn1ccc(-c2cn(CCCN)c3ccc(CN4CCN(Cc5ccccc5Cl)CC4)cc23)n1` [C189; HCl], the 50% effective concentration (EC50) is 5 to 10 µM in experiment [1], no more than 5 µM in experiment [2] and 5 to 10 µM in experiment [3].
In the case of `NCCCn1cc(-c2ccc(OC(F)(F)F)cc2CN)c2cc(S(=O)(=O)N3CCC(Nc4cccc(Cl)c4)CC3)ccc21` [C263; Formic Acid], the figures for the EC50 in experiment [1], in experiment [2] and in experiment [3] were no more than 5 µM, 5 to 10 µM and no more than 5 µM, respectively.
Take `COc1cccc(CC2(CO)CCN(Cc3ccc4c(c3)c(-c3ccc(OC(F)(F)F)cc3CN)cn4CCCN)CC2)c1` [C294; HCl]: the EC50 in experiment [1], in experiment [2] and in experiment [3] was no more than 5 µM in each case.
Consider `Cc1ccc(-c2cn(CCCN)c3ccc(CN4CCN(Cc5ccccc5Cl)CC4)cc23)c(CN)c1` [C223; HCl], for which the EC50 in experiment [1], in experiment [2] and in experiment [3] was no more than 5 µM throughout.
On to `COc1ccc(-c2cn(CCCN)c3ccc(CN4CCN(Cc5ccccc5Cl)CC4)cc23)nc1` [C196; HCl], for which the EC50 in experiment [1], in experiment [2] and in experiment [3] was no more than 5 µM in each case.
Regarding `FC(F)(F)Oc1ccc(-c2cn(CC3CNCCO3)c3ccc(CN4CCN(Cc5ccccc5Cl)CC4)cc23)cc1` (stereo not drawn) [C231; HCl], the concentration giving a half-maximal response (EC50) in experiment [1], in experiment [2] and in experiment [3] was no more than 5 µM each time.
As to `NCCCn1cc(-c2ccc(OC(F)(F)F)cc2CN)c2cc(CN3CCC(O)CC3)ccc21` [C290; HCl], the 50% effective concentration (EC50) in experiment [1], in experiment [2] and in experiment [3] was 5 to 10 µM each time.
Regarding `Nc1ccc(Cn2cc(-c3ccc(OC(F)(F)F)cc3)c3cc(CN4CCN(Cc5ccccc5Cl)CC4)ccc32)cc1` [C220; Formic Acid], the half-maximal effective concentration (EC50) in experiment [1], in experiment [2] and in experiment [3] was 5 to 10 µM in each case.
With `CCC1CCN(Cc2ccc3c(c2)c(-c2ccc(OC(F)(F)F)cc2CN)cn3CCCN)CC1` [C261; HCl], the 50% effective concentration (EC50) in experiment [1], in experiment [2] and in experiment [3] was no more than 5 µM in each case.

What is called EC50 is the midpoint of the concentration-response curve. The low end stands for a more potent agent, the high end for a less potent agent.

Source of the values: US20170158702A1, “MULTIVALENT RAS BINDING COMPOUNDS” (KYRAS THERAPEUTICS, INC., priority 2015, published 2017).
